For one assay, the target named is Carbonic anhydrase 2 (Homo sapiens, UniProt P00918).
The next assay deals with Carbonic anhydrase 1 (Homo sapiens, UniProt P00915).
The target of assay [1] is Carbonic anhydrase 5A, mitochondrial (Homo sapiens, UniProt P35218).
Assay [2] deals with Carbonic anhydrase 5B, mitochondrial (Homo sapiens, UniProt Q9Y2D0).
Carbonic anhydrase 5B, mitochondrial, sequence (Q9Y2D0 whole entry): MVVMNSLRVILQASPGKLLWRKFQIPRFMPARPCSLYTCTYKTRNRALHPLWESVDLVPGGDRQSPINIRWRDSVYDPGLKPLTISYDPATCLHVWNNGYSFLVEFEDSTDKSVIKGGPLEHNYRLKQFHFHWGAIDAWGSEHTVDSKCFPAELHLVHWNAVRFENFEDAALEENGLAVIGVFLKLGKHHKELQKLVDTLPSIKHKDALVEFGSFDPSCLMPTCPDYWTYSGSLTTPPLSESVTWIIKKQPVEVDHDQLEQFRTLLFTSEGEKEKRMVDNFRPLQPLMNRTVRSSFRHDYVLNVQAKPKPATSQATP

Carbonic anhydrase 1, sequence (P00915 whole entry): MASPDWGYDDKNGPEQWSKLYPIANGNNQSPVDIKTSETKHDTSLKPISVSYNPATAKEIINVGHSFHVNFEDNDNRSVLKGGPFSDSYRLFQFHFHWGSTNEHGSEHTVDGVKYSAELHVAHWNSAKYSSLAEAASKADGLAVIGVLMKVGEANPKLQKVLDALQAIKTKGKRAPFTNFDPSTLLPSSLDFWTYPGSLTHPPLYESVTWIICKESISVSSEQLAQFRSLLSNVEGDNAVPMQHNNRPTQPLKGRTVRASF
Carbonic anhydrase 5A, mitochondrial, sequence (P35218 whole entry): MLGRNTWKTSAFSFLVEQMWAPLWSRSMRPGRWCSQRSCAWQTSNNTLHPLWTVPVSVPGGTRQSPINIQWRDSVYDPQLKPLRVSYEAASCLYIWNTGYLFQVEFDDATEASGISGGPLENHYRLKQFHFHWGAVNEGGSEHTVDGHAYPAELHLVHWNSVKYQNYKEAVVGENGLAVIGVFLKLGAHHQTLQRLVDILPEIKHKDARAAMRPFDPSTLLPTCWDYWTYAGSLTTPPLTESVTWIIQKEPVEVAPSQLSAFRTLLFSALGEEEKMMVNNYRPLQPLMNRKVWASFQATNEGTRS

As for `CC1(C)C2CC[C@]1(CS(=O)(=O)NCc1ccc(S(N)(=O)=O)cc1)C(=O)C2`, the Ki turned out to be 1560 nM on Carbonic anhydrase 2, 920 nM on Carbonic anhydrase 1, 16.6 nM in assay [1] and 40.3 nM in assay [2].
Taken in the same sequence, the figures for `CC1(C)C2CC[C@@]1(CS(=O)(=O)NCc1ccc(S(N)(=O)=O)cc1)C(=O)C2` were 2460 nM, 1040 nM, 27.5 nM and 67.3 nM.

The Ki is the dissociation constant of the complex between target and ligand, obtained from inhibition or displacement. A lower Ki goes with higher affinity.

(Values after ChEMBL document CHEMBL1681677 (Bioorg Med Chem Lett, 2011).)
